Experimental data from patent publication US12263175B2, “Optimised dosage of diaminophenothiazines in populations” (WisTa Laboratories Ltd., priority 2018, dated 2025).

Experiment: Treatment-emergent adverse events, three Phase 3 double-blind studies, LMTM pooled safety population
Format: in vivo, human
Description: Three Phase 3, double-blind, controlled studies of LMTM have been completed (one each in subjects with mild and mild to moderate AD and one in subjects with bvFTD). Results of the AD studies have been published (Gauthier et al., 2016; Wilcock et al., 2018).
In these three studies, 1897 subjects received at least one dose of LMTM (Safety Population [Five additional subjects with AD, participating at one site in Study TRx-237-005, received a dose of study drug but were excluded from all analyses due to GCP violations], 1679 subjects with AD and 218 subjects with bvFTD). Of these, 860 subjects received the control (LMTM 8 mg/day, 750 with AD and 110 with bvFTD) and 1037 subjects received at least one dose of LMTM in the higher doses of 150 to 250 mg/day (929 with AD and 108 with bvFTD).
The incidence of the most common TEAEs are summarised by dose in the following Table EX1. This includes TEAEs that occurred at an incidence of ≥2.0% either in subjects randomised to LMTM 8 mg/day or higher doses (150 to 250 mg/day). The subset of TEAEs that were severe in intensity are also included.
The TEAEs are further analysed by using groupings of related MedDRA (Medical Dictionary for Regulatory Activities) preferred terms to better estimate the incidence of potentially treatment related adverse events. The incidence of all groupings for subjects categorised by dose (8 mg/day versus higher doses of 150 to 250 mg/day) is shown in the following Table EX2: […]

[1] = Higher Doses (150-250 mg/day) (N = 1037)
[2] = Higher Doses (150-250 mg/day) (N = 1037), All
[3] = Higher Doses (150-250 mg/day) (N = 1037), Severe Intensity

CN(C)c1ccc2c(c1)Sc1cc(N(C)C)ccc1N2 [LMTM, leuco-methylthioninium bis(hydromethanesulfonate)]
Grouped TEAE incidence: Affective/Anxiety Symptoms [1]: 55 (5.3%) n (%) | Grouped TEAE incidence: Anaemia [1]: 219 (21.1%) n (%) | Grouped TEAE incidence: Behavioral Symptoms [1]: 118 (11.4%) n (%) | Grouped TEAE incidence: Falls and Related Terms [1]: 202 (19.5%) n (%) | Grouped TEAE incidence: Hepatic Function Impairment [1]: 34 (3.3%) n (%) | Grouped TEAE incidence: Hypersensitivity [1]: 63 (6.1%) n (%) | Grouped TEAE incidence: Ischaemic Events, Inclusive of Myocardial Infarction [1]: 35 (3.4%) n (%) | Grouped TEAE incidence: Psychotic Symptoms [1]: 34 (3.3%) n (%) | Grouped TEAE incidence: Renal Function Impairment [1]: 42 (4.1%) n (%) | Grouped TEAE incidence: Renal and Urinary Disorders (Including Infections) [1]: 326 (31.4%) n (%) | Grouped TEAE incidence: Sleep Disorders [1]: 48 (4.6%) n (%) | Grouped TEAE incidence: Targeted Gastrointestinal Events [1]: 401 (38.7%) n (%) | No. (%) of Subjects Reporting at Least One TEAE [2]: 902 (87.0%) n (%) | TEAE incidence: Abdominal pain [2]: 30 (2.9%) n (%) | TEAE incidence: Abdominal pain upper [2]: 21 (2.0%) n (%) | TEAE incidence: Agitation [2]: 61 (5.9%) n (%) | TEAE incidence: Anaemia [2]: 59 (5.7%) n (%) | TEAE incidence: Anxiety [2]: 39 (3.8%) n (%) | TEAE incidence: Arthralgia [2]: 31 (3.0%) n (%) | TEAE incidence: Atrial fibrillation [2]: 10 (1.0%) n (%) | TEAE incidence: Back pain [2]: 44 (4.2%) n (%) | TEAE incidence: Blood creatine phosphokinase increased [2]: 31 (3.0%) n (%) | TEAE incidence: Blood folate decreased [2]: 76 (7.3%) n (%) | TEAE incidence: Bronchitis [2]: 19 (1.8%) n (%) | TEAE incidence: Cerebral microhaemorrhage [2]: 16 (1.5%) n (%) | TEAE incidence: Confusional state [2]: 45 (4.3%) n (%) | TEAE incidence: Constipation [2]: 24 (2.3%) n (%) | TEAE incidence: Contusion [2]: 15 (1.4%) n (%) | TEAE incidence: Cough [2]: 42 (4.1%) n (%) | TEAE incidence: Decreased appetite [2]: 39 (3.8%) n (%) | TEAE incidence: Dehydration [2]: 18 (1.7%) n (%) | TEAE incidence: Depression [2]: 37 (3.6%) n (%) | TEAE incidence: Diarrhoea [2]: 278 (26.8%) n (%) | TEAE incidence: Dizziness [2]: 64 (6.2%) n (%) | TEAE incidence: Dysuria [2]: 75 (7.2%) n (%) | TEAE incidence: Fall [2]: 78 (7.5%) n (%) | TEAE incidence: Fatigue [2]: 38 (3.7%) n (%) | TEAE incidence: Folate deficiency [2]: 45 (4.3%) n (%) | TEAE incidence: Haemoglobin decreased [2]: 34 (3.3%) n (%) | TEAE incidence: Hallucination [2]: 21 (2.0%) n (%) | TEAE incidence: Headache [2]: 61 (5.9%) n (%) | TEAE incidence: Hypertension [2]: 22 (2.1%) n (%) | TEAE incidence: Insomnia [2]: 32 (3.1%) n (%) | TEAE incidence: Laceration [2]: 14 (1.4%) n (%) | TEAE incidence: Micturition urgency [2]: 35 (3.4%) n (%) | TEAE incidence: Nasopharyngitis [2]: 43 (4.1%) n (%) | TEAE incidence: Nausea [2]: 86 (8.3%) n (%) | TEAE incidence: Oedema peripheral [2]: 20 (1.9%) n (%) | TEAE incidence: Pain in extremity [2]: 17(1.6%) n (%) | TEAE incidence: Pollakiuria [2]: 71 (6.8%) n (%) | TEAE incidence: Rash [2]: 30 (2.9%) n (%) | TEAE incidence: Suicidal ideation [2]: 30 (2.9%) n (%) | TEAE incidence: Syncope [2]: 28 (2.7%) n (%) | TEAE incidence: Tremor [2]: 13 (1.3%) n (%) | TEAE incidence: Upper respiratory tract infection [2]: 34 (3.3%) n (%) | TEAE incidence: Urinary incontinence [2]: 63 (6.1%) n (%) | TEAE incidence: Urinary tract infection [2]: 116 (11.2%) n (%) | TEAE incidence: Vitamin B12 decreased [2]: 21 (2.0%) n (%) | TEAE incidence: Vomiting [2]: 80 (7.7%) n (%) | TEAE incidence: Weight decreased [2]: 39 (3.8%) n (%) | No. (%) of Subjects Reporting at Least One TEAE [3]: 126 (12.2%) n (%) | TEAE incidence: Abdominal pain [3]: 1 (0.1%) n (%) | TEAE incidence: Abdominal pain upper [3]: 0 n (%) | TEAE incidence: Agitation [3]: 7 (0.7%) n (%) | TEAE incidence: Anaemia [3]: 0 n (%) | TEAE incidence: Anxiety [3]: 2 (0.2%) n (%) | TEAE incidence: Arthralgia [3]: 1 (0.1%) n (%) | TEAE incidence: Atrial fibrillation [3]: 2 (0.2%) n (%) | TEAE incidence: Back pain [3]: 2 (0.2%) n (%) | TEAE incidence: Blood creatine phosphokinase increased [3]: 0 n (%) | TEAE incidence: Blood folate decreased [3]: 0 n (%) | TEAE incidence: Bronchitis [3]: 0 n (%) | TEAE incidence: Cerebral microhaemorrhage [3]: 0 n (%) | TEAE incidence: Confusional state [3]: 2 (0.2%) n (%) | TEAE incidence: Constipation [3]: 1 (0.1%) n (%) | TEAE incidence: Contusion [3]: 0 n (%) | TEAE incidence: Cough [3]: 0 n (%) | TEAE incidence: Decreased appetite [3]: 1 (0.1%) n (%) | TEAE incidence: Dehydration [3]: 2 (0.2%) n (%) | TEAE incidence: Depression [3]: 2 (0.2%) n (%) | TEAE incidence: Diarrhoea [3]: 14 (1.4%) n (%) | TEAE incidence: Dizziness [3]: 2 (0.2%) n (%) | TEAE incidence: Dysuria [3]: 1 (0.1%) n (%) | TEAE incidence: Fall [3]: 7 (0.7%) n (%) | TEAE incidence: Fatigue [3]: 1 (0.1%) n (%) | TEAE incidence: Folate deficiency [3]: 0 n (%) | TEAE incidence: Haemoglobin decreased [3]: 0 n (%) | TEAE incidence: Hallucination [3]: 4 (0.4%) n (%) | TEAE incidence: Headache [3]: 3 (0.3%) n (%) | TEAE incidence: Hypertension [3]: 1 (0.1%) n (%) | TEAE incidence: Insomnia [3]: 0 n (%) | TEAE incidence: Laceration [3]: 1 (0.1%) n (%) | TEAE incidence: Micturition urgency [3]: 0 n (%) | TEAE incidence: Nasopharyngitis [3]: 0 n (%) | TEAE incidence: Nausea [3]: 1 (0.1%) n (%) | TEAE incidence: Oedema peripheral [3]: 0 n (%) | TEAE incidence: Pain in extremity [3]: 0 n (%) | TEAE incidence: Pollakiuria [3]: 2 (0.2%) n (%) | TEAE incidence: Rash [3]: 0 n (%) | TEAE incidence: Suicidal ideation [3]: 0 n (%) | TEAE incidence: Syncope [3]: 5 (0.5%) n (%) | TEAE incidence: Tremor [3]: 0 n (%) | TEAE incidence: Upper respiratory tract infection [3]: 0 n (%) | TEAE incidence: Urinary incontinence [3]: 1 (0.1%) n (%) | TEAE incidence: Urinary tract infection [3]: 3 (0.3%) n (%) | TEAE incidence: Vitamin B12 decreased [3]: 0 n (%) | TEAE incidence: Vomiting [3]: 3 (0.3%) n (%) | TEAE incidence: Weight decreased [3]: 0 n (%) | Grouped TEAE incidence: Affective/Anxiety Symptoms (LMTM 8 mg/day (N = 860)): 60 (7.0%) n (%) | Grouped TEAE incidence: Anaemia (LMTM 8 mg/day (N = 860)): 111 (12.9%) n (%)
